Results on 3 molecules are retold here after patent publication US20220226260A1, “APPLICATION OF HONOKIOL AND MAGNOLOL IN PREPARATION OF MCR-1 ENZYME INHIBITOR” (priority 2019, published 2022).

Assay [1] concerns MCR-1 positive Escherichia coli (E. coli DZ2-12R). As to the kind of experiment: Chessboard MIC test, MCR-1 positive E. coli. The conditions noted are these: for MIC: Escherichia coli; for antibacterial effect alone: summary for the strains of Tables 1 and 2; for reduction of the MIC value of polymyxin: combination with polymyxin, MCR-1 positive Escherichia coli. The format is cell-based. The method, then:
(§1) The antibacterial activities of honokiol, magnolol, polymyxin and their combination against MCR-1 producing Escherichia coli (also referred to as MCR-1 positive Escherichia coli) and Klebsiella pneumoniae are tested by chessboard method in 96-well sterile microplates, the MIC values are determined, and the fractional inhibitory concentration (FIC) indexes are calculated. Specifically, FIC=MIC (polymyxin combined)/MIC (polymyxin alone)+MIC (honokiol/magnolol combined)/MIC (honokiol/magnolol alone).

Assay [2] relates to MCR-1 positive Escherichia coli isolate. Kind of assay: Time-kill curve test. Format: cell-based. The note with it: 1×10^5 CFUs/mL. The method, then:
An overnight culture of MCR-1 positive Escherichia coli isolate is taken and adjusted to 1×10^7 colony forming units per milliliter (CFUs/mL) for use. Sterile test tubes are taken and divided into 4 groups (including blank control group, 2 μg/mL polymyxin group B group, 16 μg/mL honokiol or 32 μg/mL magnolol group, and 16 μg/mL honokiol or 32 μg/mL magnolol combined with 2 μg/mL polymyxin B group), each group is marked for 1, 3, 5 and 7 hours. 1 mL of autoclaved Lysogeny broth (LB) medium is added into each of the test tubes, and then 10 microliters (μL) of adjusted bacterial solution are added into each of the test tubes so that the concentration of bacterial solution in each of the test tubes is 1×10^5 CFUs/mL. Among them, 2 μg/mL polymyxin group B group, 16 μg/mL honokiol or 32 μg/mL magnolol group, and 16 μg/mL honokiol or 32 μg/mL magnolol combined with 2 μg/mL polymyxin B group are added with the corresponding amount of antibiotics and inhibitors respectively. Immediately after mixing, the bacterial solution of the antibiotic-free control group is coated and counted as the CFU at 0 H. After that, the bacterial solution in the corresponding test tube is taken every 1, 3, 5 and 7 hours, and the plate is coated for counting, and the time-kill curves are drawn, as shown in FIG. 1 and FIG. 2.

Assay [3] relates to MCR-1 engineering bacteria E. coli BL21(DE3) (pET28a-mcr-1). As to the kind of experiment: Chessboard MIC test, MCR-1 engineering bacteria. Format: cell-based, Escherichia coli. The note with it: for MIC: Escherichia coli, read-out: MIC alone; for synergistic effect with polymyxin: combination with polymyxin, strain expressing MCR-1; for FIC: combined with polymyxin B. The method, then:
as §1

The test system of assay [4] is MCR-1 positive Klebsiella pneumoniae (K. pneumoniae ZJ02). As to the kind of experiment: Chessboard MIC test, MCR-1 positive K. pneumoniae. The note with it: for MIC: Klebsiella pneumoniae; for reduction of the MIC value of polymyxin: combination with polymyxin, MCR-1 positive Klebsiella pneumoniae. The format is cell-based. As to the method:
as §1

The test system of assay [5] is E. coli BL21(DE3) (pET28a). As to the kind of experiment: Chessboard MIC test, engineering strain not expressing MCR-1. The format is cell-based, Escherichia coli. The conditions noted are these: for MIC: Escherichia coli, read-out: MIC alone; for synergistic effect with polymyxin: combination with polymyxin, strain that does not express MCR-1; for FIC: combined with polymyxin B.

Assay [6] deals with MCR-1 positive Klebsiella pneumoniae. As to the kind of experiment: Colony colonization experiment of mouse thigh muscle infection. Format: in vivo. The conditions noted are these: BALB/C mice, subcutaneous, every 8 hours for three times, 36 hours. As to the method:
After BALB/C mice (female, about 20 […] (g)) are restrained, MCR-1 positive Klebsiella pneumoniae suspension (2×10^7 CFUs) is injected through the inner thigh to establish a mouse thigh muscle infection model.
After intramuscular injection of MCR-1 positive Klebsiella pneumoniae into the inner thigh of mice, 5 […] (mg/kg) (50 μL) of polymyxin B dissolved in sterile ultra-pure water (dd H2O), 50 mg/kg (50 μL) honokiol or magnolol dissolved in dimethyl sulfoxide (DMSO) solution, and 50 mg/kg of honokiol or magnolol combined with polymyxin B (5 mg/kg) are injected subcutaneously, while the positive control group is subcutaneously injected with 50 μL DMSO blank solvent. All groups of mice are administered subcutaneously every 8 hours for three times. After 36 hours of administration, the mice are sacrificed, and the thigh muscles are weighed, homogenized, diluted and counted.

Setting [7] is: combined with polymyxin B, E. coli DZ2-12R.
[8] abbreviates: E. coli BL21(DE3) (pET28a-mcr-1).
The mark [9] stands for this setting: combined with polymyxin B, K. pneumoniae ZJ02.
[10] abbreviates: 50 mg/kg combined with polymyxin B (5 mg/kg).
[11] abbreviates: alone (honokiol or magnolol 50 mg/kg, polymyxin B 5 mg/kg).

Where two headings read alike, the source gives them in different places.

For `C=CCc1ccc(O)c(-c2ccc(O)c(CC=C)c2)c1` [Honokiol, honokiol], the MIC in assay [1] (read-out: MIC alone) is over 512 µg/mL; in assay [1] (combined with polymyxin B, E. coli DZ2-12R, read-out: MIC co-application (honokiol/magnolol)), 32 µg/mL; in assay [3], over 512 µg/mL; in assay [4] (read-out: MIC alone), over 512 µg/mL; in assay [4] (combined with polymyxin B, K. pneumoniae ZJ02, read-out: MIC co-application (honokiol/magnolol)) it was 32 µg/mL; in assay [5] it was over 512 µg/mL. Also, in assay [1] (alone), the antibacterial effect alone result is recorded as “no antibacterial effect”. Moreover, the “reduction of the MIC value of polymyxin” value is 8 fold in assay [1] and 16 fold in assay [4]. Further, the FIC in assay [1] (setting [7]) stood at 0.1875; in assay [3] (setting [8]), 0.125; in assay [4] (setting [9]), 0.125; in assay [5] (E. coli BL21(DE3) (pET28a)), 0.5625. Besides, the “time to completely kill MCR-1 positive Escherichia coli” value in assay [2] (16 μg/mL honokiol combined with 2 μg/mL polymyxin B) was at most 1 h. The results for the “synergistic effect with polymyxin” value in assay [3] and in assay [5] were “obvious synergistic effect” and “does not have any synergistic effect”, respectively. The “number of bacterial colonization in mouse thigh muscle” value (shortened to “number of bacterial colonization”) was “significantly reduced” in assay [6] (setting [10]) and “no significant effect” in assay [6] (setting [11]).
On to Polymyxin B [reference compound], for which the MIC alone in assay [1] (alone, E. coli DZ2-12R) was 8 µg/mL; in assay [3] (alone, E. coli BL21(DE3) (pET28a-mcr-1)), 8 µg/mL; in assay [4] (alone, K. pneumoniae ZJ02), 32 µg/mL; in assay [5] (alone, E. coli BL21(DE3) (pET28a)), 1 µg/mL. In addition, the “MIC Polymyxin B co-application” value in assay [1] (polymyxin B combined with honokiol, E. coli DZ2-12R) came to 1 µg/mL; in assay [1] (polymyxin B combined with magnolol, E. coli DZ2-12R) it was 2 µg/mL; in assay [3] (polymyxin B combined with honokiol, E. coli BL21(DE3) (pET28a-mcr-1)), 0.5 µg/mL; in assay [3] (polymyxin B combined with magnolol, E. coli BL21(DE3) (pET28a-mcr-1)), 1 µg/mL; in assay [4] (polymyxin B combined with honokiol, K. pneumoniae ZJ02) it was 2 µg/mL; in assay [4] (polymyxin B combined with magnolol, K. pneumoniae ZJ02), 8 µg/mL. For the same molecule, the “MIC Polymyxin B co-application” value in assay [5] (polymyxin B combined with honokiol, E. coli BL21(DE3) (pET28a)) was determined as 0.5 µg/mL; in assay [5] (polymyxin B combined with magnolol, E. coli BL21(DE3) (pET28a)), 1 µg/mL. Besides, the “number of bacterial colonization” value in assay [6] (setting [11]) is “no significant effect”.
In the case of `C=CCc1ccc(O)c(-c2cc(CC=C)ccc2O)c1` [Magnolol, magnolol], the MIC in assay [1] (read-out: MIC alone), in assay [3], in assay [4] (read-out: MIC alone) and in assay [5] was over 512 µg/mL in each case. The antibacterial effect alone entry in assay [1] (alone) is reported as “no antibacterial effect”. The “reduction of the MIC value of polymyxin” value in assay [1] and in assay [4] was 4 fold each time. Also, the FIC in assay [1] (setting [7]) came out at 0.3125; in assay [3] (setting [8]), 0.1875; in assay [4] (setting [9]) it was 0.3125; in assay [5] (E. coli BL21(DE3) (pET28a)), 1.0625. In assay [2] (32 μg/mL magnolol combined with 2 μg/mL polymyxin B), the “time to completely kill MCR-1 positive Escherichia coli” value was at most 3 h. In addition, the “synergistic effect with polymyxin” value in assay [3] was “obvious synergistic effect”; in assay [5], “does not have any synergistic effect”. Further, the “number of bacterial colonization” value in assay [6] (setting [10]) is given as “significantly reduced”; in assay [6] (setting [11]), “no significant effect”.
